# “Also recorded” adds a separate entry of the source.
# How the values were obtained:
# Cyclin D1 = experiment: Protein expression in Niclosamide-treated MCF-7 sps cells: Cyclin D1; assay type: cell-based; details: MCF-7 sps cells treated with Niclosamide
# MDA-MB231 SPS cells = experiment: Survival of MDA-MB231 SPS cells; assay type: cell-based, human; details: following Niclosamide treatment
# CP70 sps cells [1] = experiment: CP70 sps tumors in NOD/SCID mice (preclinical test); assay type: in vivo
# Protocol: For preclinical test, two groups with five mice each were i.p. injected with 1×10^4 of CP70 sps cells alone or followed by Niclosamide treatment (10 mg/kg/daily) from day 1 to day 47, respectively. […] After 48 days, the mice were sacrificed to examine the tumor nodules formation in the abdominal cavity.
# OCT4 = experiment: Flow cytometry of OCT4 in MCF-7 sps cells; assay type: cell-based; details: 5 μM
# PTCH = experiment: Protein expression in Niclosamide-treated MCF-7 sps cells: PTCH; assay type: cell-based; details: MCF-7 sps cells treated with Niclosamide
# [2] = tested on: OVCICs sps cells collected from ovarian cancer patient(s); experiment: Patients' OVCA specimen-derived cells (pdOVCICs / OVCICs sps), MTS assay; assay type: cell-based, human; details: in vitro
# Protocol: A total of 5000 pdOVCICs were seeded onto each well in 96-well plates and each plate was treated with different concentrations of Niclosamide in duplicates for 3 days. The vitality of pdOVCICs cells was measured by MTS assay.
# MDA-MB 231 cells = experiment: Inhibition of MDA-MB 231 cells; assay type: cell-based, human; details: 3 μM
# MCF-7 SPS cells [3] = experiment: LOPAC compounds tested on MCF-7 SPS cells (Table 2); details: Compounds that inhibit cancer stem cells, 3 μM stated for Niclosamide
# From the text: (§2) The morphology and number of the spheroids were further analyzed by software image pro plus.
# MCF-7 sps cells [4] = experiment: MCF-7 sps tumors in NOD/SCID mice; assay type: in vivo; details: MCF-7 sps cells in NOD/SCID mice, 5 μM Niclosamide
# OVCA sps cells = experiment: LOPAC compounds tested on OVCA sps cells, MTS / ATP-based assay (Table 3); assay type: cell-based; details: proliferation and differentiation
# Protocol: CP70 sps cells were seeded in a 96-well culture plate (1×10^3 cells/well) and cultured for 24 hr, and then treated with 30 μM of various compounds selected from the LOPAC database. Following 3-day treatment, the vitality of the treated cells was measured by CellTiter-Glo® Luminescent Cell Vitality Assay kit (Promega) according to the manufacturer's instructions.
# (§1) The vitality of the treated cells was measured by MTS assay using MTS-based CellTiter 96 aqueous non-radioactive cell proliferation assay kit (Promega) according to the manufacturer's instructions.
# CP70 sps cells [5] = experiment: Cytotoxicity / vitality of CP70 sps cells (MTS assay); details: FIG. 14 / FIG. 15
# Protocol: as §1
# The vitality of the CP70 sps cells was measured by MTS assay. For preclinical test, two groups with five mice each were i.p. injected with 1×10^4 of CP70 sps cells alone or followed by Niclosamide treatment (10 mg/kg/daily) from day 1 to day 47, respectively. The body weights of the two groups of mice were monitored every 3 days during day 36 to day 48. After 48 days, the mice were sacrificed to examine the tumor nodules formation in the abdominal cavity.
# Hes-1 = experiment: Protein expression in Niclosamide-treated MCF-7 sps cells: Hes-1; assay type: cell-based; details: MCF-7 sps cells treated with Niclosamide
# MCF-7 SPS cells [6] = experiment: MCF-7 SPS spheroid proliferation and differentiation
# From the text: as §2
compound,measurement,setting,value
O=C(Nc1ccc([N+](=O)[O-])cc1Cl)c1cc(Cl)ccc1O [Niclosamide],inhibition of Cyclin D1 expression,Cyclin D1,57.4%
same,survival of MDA-MB231 SPS cells,MDA-MB231 SPS cells,negatively correlated with the treatment
same,sizes and weights of the tumors vs untreated mice,"CP70 sps cells [1]; CP70 sps cells in NOD/SCID mice, 5 μM Niclosamide",significantly different; also recorded: smaller and lighter
same,inhibition on cancer stem cells in pre-clinical ovarian cancer studies,"CP70 sps cells [1]; mouse, in vivo",successful inhibition
same,numbers of ovarian cancer cells in the tumors,CP70 sps cells [1]; tumors from Niclosamide-treated animals (FIG. 13B),inhibited
same,expression of OCT4,OCT4,higher expression
same,inhibition of PTCH expression,PTCH,79.2%
same,differentiation and growth of ovarian cancer cells,[2],successfully inhibited
same,inhibition of MDA-MB 231 cells,MDA-MB 231 cells,significantly inhibited
same,Cancer cell survival (%),MCF-7 SPS cells [3],1.4%
same,sizes and weights of the tumors vs untreated mice,MCF-7 sps cells [4],smaller and lighter
same,Cancer cell survival (%),OVCA sps cells,34.86%
same,numbers of ovarian cancer stem cells in CP70 SPS cell culture in vitro,CP70 sps cells [5],inhibited
same,inhibition of Hes-1 expression,Hes-1,33.1%
same,inhibition of MCF-7 sps cells,MCF-7 SPS cells [6]; 3 μM,significantly inhibited
same,proliferation and differentiation of the spheroid,"MCF-7 SPS cells [6]; MCF-7 SPS, 3 μM and 30 μM for 48 hr",efficiently inhibit
same,differentiation and proliferation / formation of MCF-7 SPS cells,MCF-7 SPS cells [6]; concentration not given,inhibit the formation; also recorded: significantly inhibited
